According to patent USRE32455E, “A-21978 antibiotics and process for their production” (priority 1985, dated 1987):
Values after ≈ are worked out from the molar mass of the structure shown. Values joined by “and” are separate entries in the source; they are usually repeats but may differ in a detail not shown here. Equal values may be shown once.

How the values were obtained:
[1] = test system: Fusobacterium necrophorum; test: MIC anaerobic bacteria, standard agar-dilution test; format: cell-based
[2] = test system: Streptococcus pneumoniae Park I; test: MIC, standard agar-dilution test; format: cell-based; details: Table XI, sodium salt
[3] = Toxicity (LD50) in mouse; format: in vivo
[4] = test system: Eubacterium aerofaciens; test: MIC anaerobic bacteria, standard agar-dilution test; format: cell-based
[5] = test system: Group D Streptococcus 282; test: MIC, standard agar-dilution test; format: cell-based; details: Table XI, sodium salt
[6] = test system: Streptococcus faecalis (Guze); test: Streptococcus faecalis descending rat pyelonephritis test; format: in vivo, rat (female albino, Cox-Wistar); details: 1.0 mg/kg × 7, subcutaneous
Description: In this test, the bacterial culture used was Streptococcus faecalis (Guze). The culture was grown on Trypticase soy agar (BBL), suspended in brain heart infusion broth (BBL), divided into 0.2-ml portions, and frozen in liquid nitrogen. Bacterial suspensions for rat inoculations were prepared daily by seeding a 50-ml flask of trypticase soy broth (BBL) from a frozen ampoule and growing the culture overnight at 37° C. on a shaker. The S. faecalis culture was diluted to 5×10^8 colony-forming units per ml. Test compounds were injected subcutaneously once daily for seven days. All compounds were suspended in 0.125% carboxymethylcellulose.
The experimental rat infections were accomplished by the following procedure. Female, random-bred albino rats (Cox-Wistar) weighing 190 to 210 g were anesthetized by intraperitoneal injection of 12 mg of sodium methohexital supplemented as necessary. The experimental pyelonephritis model was based on the studies of Guze and Beeson in which the left ureter was occluded for 20 min, followed by injection of 0.5 ml of the test organism in the femoral vein. Antimicrobial therapy was commenced 4 to 5 hrs postinfection. Four hours after the last treatment the rats were sacrificed, and the left kidney was removed and homogenized in a Duall grinder containing 9 ml of physiological saline. This represented a 10^-1 dilution of the kidney tissue. Additional 10-fold dilutions in saline were based on the anticipated bacterial cells present in the tissue homogenate. Finally, duplicate agar pour plates were made from several of these dilutions, and the plates were incubated overnight at 37° C. The therapeutic results were expressed in two ways: (i) the percentage of rats with kidney counts of less than 10^2 per g of kidney tissue, referred to as "cures," and (ii) the percentage of rats with at least a 4-log10 reduction in bacterial titer compared with infected control kidneys. Control rats were treated with 0.125% carboxymethylcellulose only. Viable cell counts in kidney tissue from control rats with S. faecalis ranged from 1.2×10^8 to 4.6×10^8 per g of homogenized tissue.

[7] = test system: Peptostreptococcus anaerobius; test: MIC anaerobic bacteria, standard agar-dilution test; format: cell-based
[8] = test system: Streptococcus pyogenes; test: MIC, agar dilution (Table XV); format: cell-based
[9] = test system: Fusobacterium symbiosum; test: MIC anaerobic bacteria, standard agar-dilution test; format: cell-based
[10] = test system: Clostridium perfringens; format: cell-based; details: anaerobic, agar-dilution
[11] = test system: Clostridium septicum; test: MIC anaerobic bacteria, standard agar-dilution test; format: cell-based
[12] = test system: Streptococcus faecalis (Guze); test: In vitro susceptibility (MIC) of the S. faecalis Guze strain; format: cell-based; details: Table XVI
[13] = test system: Group D Streptococcus 282; test: MIC, standard broth-dilution test; format: cell-based; details: Table XII, sodium salt
[14] = test system: Staphylococcus aureus 3055; test: MIC, standard broth-dilution test; format: cell-based; details: Table XII, sodium salt
[15] = test system: Staphylococcus aureus 3055; test: MIC, standard agar-dilution test; format: cell-based; details: Table XI, sodium salt
[16] = test system: pathogenic organisms, particularly gram-positive bacteria; test: Inhibition of growth of pathogenic organisms; format: cell-based
[17] = test system: Viridans Streptococcus 9943; test: MIC, standard agar-dilution test; format: cell-based; details: Table XI, sodium salt
[18] = test system: Peptococcus prevoti; test: MIC anaerobic bacteria, standard agar-dilution test; format: cell-based
[19] = Toxicity (LD50) in rat; format: in vivo; details: IV
[20] = test system: Streptococcus pneumoniae; test: MIC, agar dilution (Table XV); format: cell-based
[21] = test system: Viridans Streptococcus 9943; test: MIC, standard broth-dilution test; format: cell-based; details: Table XII, sodium salt
[22] = test system: Staphylococcus aureus; test: MIC, agar dilution (Table XV); format: cell-based
Text: ^1 MIC = minimum inhibitory concentration (μg/ml), agar dilution

[23] = test system: Micrococcus luteus; test: Bioassay, paper-disc agar-diffusion; details: Na salts; Table VIII
[24] = Electrometric titration in 66% aqueous dimethylformamide; format: physicochemical; details: 66% DMF; Na salt; factors: two determinations
[25] = test system: Peptococcus asaccharolyticus; test: MIC anaerobic bacteria, standard agar-dilution test; format: cell-based
[26] = test system: Streptococcus pneumoniae; test: Experimental bacterial infection in mice, ED50; format: in vivo; details: two doses, subcutaneous administration
Description: (§1) When two doses of test compound were administered to mice in illustrative infections, the activity observed was measured as an ED50 value [effective dose in mg/kg to protect fifty percent of the test animals: See Warren Wick, et al., J. Bacteriol. 81, 233-235 (1961)].

[27] = test system: Streptococcus pyogenes; test: Experimental bacterial infection in mice, ED50; format: in vivo; details: two doses
Description: as §1

[28] = test system: Staphylococcus aureus; test: Experimental bacterial infection in mice, ED50; format: in vivo; details: two doses, subcutaneous administration
Description: as §1

[29] = test system: Propionibacterium acnes; test: MIC anaerobic bacteria, standard agar-dilution test; format: cell-based
[30] = test system: Bacteroides fragilis; test: as above; format: cell-based
[31] = test system: Neisseria gonorrhoeae 111076-4; test: MIC, standard agar-dilution test; format: cell-based; details: Table XI, sodium salt
[32] = test system: Peptostreptococcus intermedius; test: MIC anaerobic bacteria, standard agar-dilution test; format: cell-based
[33] = test system: Streptococcus pyogenes C203; test: MIC, standard broth-dilution test; format: cell-based; details: Table XII, sodium salt
[34] = test system: Streptococcus pneumoniae Park I; test: MIC, standard broth-dilution test; format: cell-based; details: Table XII, sodium salt
[35] = test system: Actinomyces isaelii; test: MIC anaerobic bacteria, standard agar-dilution test; format: cell-based
[36] = test system: Streptococcus pyogenes C203; test: MIC, standard agar-dilution test; format: cell-based; details: Table XI, sodium salt

CC(C)CCCCCCCCC(=O)N[C@@H](Cc1c[nH]c2ccccc12)C(=O)N[C@@H](CC(N)=O)C(=O)N[C@@H](CC(=O)O)C(=O)N[C@@H]1C(=O)NCC(=O)N[C@@H](CCCN)C(=O)N[C@@H](CC(=O)O)C(=O)N[C@H](C)C(=O)N[C@@H](CC(=O)O)C(=O)NCC(=O)N[C@H](CO)C(=O)N[C@@H]([C@H](C)CC(=O)O)C(=O)N[C@@H](CC(=O)c2ccccc2N)C(=O)O[C@@H]1C [Factor C2]
MIC [1]: 64 µg/mL (≈ 38.8 µM) | MIC [2]: 0.25 µg/mL | LD50 ([3]; IV): 150 to 250 mg/kg | LD50 ([3]; SC): 175 mg/kg | MIC [4]: 8 µg/mL (≈ 4.85 µM) | MIC [5]: 0.25 µg/mL | Percent of Rats Cured [6]: 89% | Percent of Rats with a 4-Log Titer Decrease [6]: 100% | MIC [7]: 1.0 µg/mL (≈ 0.607 µM) | MIC [8]: 0.13 µg/mL (≈ 0.0788 µM) | MIC [9]: > 128 µg/mL | MIC [10]: 8 µg/mL (≈ 4.85 µM) | MIC [11]: 1.0 µg/mL (≈ 0.607 µM) | MIC [12]: 0.25 µg/mL (≈ 0.152 µM) | MIC [13]: 1.0 µg/mL | MIC [14]: 0.5 µg/mL | MIC [15]: 0.13 µg/mL | growth inhibition [16]: inhibit the growth of certain pathogenic organisms, particularly gram-positive bacteria | MIC [17]: 1.0 µg/mL | MIC [18]: 1.0 µg/mL (≈ 0.607 µM) | LD50 [19]: 204 ± 17 mg/kg | MIC [20]: 0.13 µg/mL (≈ 0.0788 µM) | MIC [21]: 16.0 µg/mL | MIC [22]: 0.13 µg/mL (≈ 0.0788 µM) | Bioassay (Micrococcus luteus) [23]: 1390 units/mg | pKa (first group) [24]: 5.8 and 5.93 | pKa (second group) [24]: 7.6 and 7.63 | MIC [25]: 2 µg/mL (≈ 1.21 µM) | ED50 [26]: 0.14 mg/kg | ED50 [27]: 0.032 mg/kg | ED50 ([27]; oral administration): 59 mg/kg | ED50 [28]: 0.16 mg/kg | MIC [29]: 2 µg/mL (≈ 1.21 µM) | MIC [30]: > 128 µg/mL | MIC [31]: 4.0 µg/mL | MIC [32]: 1.0 µg/mL (≈ 0.607 µM) | MIC [33]: 0.25 µg/mL | MIC [34]: 1.0 µg/mL | MIC [35]: 1.0 µg/mL (≈ 0.607 µM) | MIC [36]: 0.13 µg/mL

CCC(C)CCCCCCCCC(=O)N[C@@H](Cc1c[nH]c2ccccc12)C(=O)N[C@@H](CC(N)=O)C(=O)N[C@@H](CC(=O)O)C(=O)N[C@@H]1C(=O)NCC(=O)N[C@@H](CCCN)C(=O)N[C@@H](CC(=O)O)C(=O)N[C@H](C)C(=O)N[C@@H](CC(=O)O)C(=O)NCC(=O)N[C@H](CO)C(=O)N[C@@H]([C@H](C)CC(=O)O)C(=O)N[C@@H](CC(=O)c2ccccc2N)C(=O)O[C@@H]1C (some centres unmarked) [Factor C3]
MIC [1]: 32 µg/mL (≈ 19.2 µM) | MIC [2]: 0.13 µg/mL | LD50 ([3]; IV): < 50 mg/kg | LD50 ([3]; SC): 70 to 75 mg/kg | MIC [4]: 4 µg/mL (≈ 2.41 µM) | MIC [5]: 0.13 µg/mL | Percent of Rats Cured [6]: 78% | Percent of Rats with a 4-Log Titer Decrease [6]: 78% | MIC [7]: 1.0 µg/mL (≈ 0.601 µM) | MIC [8]: 0.06 µg/mL (≈ 0.0361 µM) | MIC [9]: 16 µg/mL (≈ 9.62 µM) | MIC [10]: 8 µg/mL (≈ 4.81 µM) | MIC [11]: 1.0 µg/mL (≈ 0.601 µM) | MIC [12]: 0.13 µg/mL (≈ 0.0782 µM) | MIC [13]: 0.13 µg/mL | MIC [14]: 0.13 µg/mL | MIC [15]: 0.06 µg/mL | growth inhibition [16]: inhibit the growth of certain pathogenic organisms, particularly gram-positive bacteria | MIC [17]: 0.5 µg/mL | MIC [18]: < 0.5 µg/mL | LD50 [19]: < 160 mg/kg | MIC [20]: 0.03 µg/mL (≈ 0.018 µM) | MIC [21]: 32.0 µg/mL | MIC [22]: 0.06 µg/mL (≈ 0.0361 µM) | Bioassay (Micrococcus luteus) [23]: 803 units/mg | pKa (first group) [24]: 5.73 and 5.75 | pKa (second group) [24]: 7.54 and 7.58 | MIC [25]: 1.0 µg/mL (≈ 0.601 µM) | ED50 [26]: 0.09 mg/kg | ED50 [27]: 0.032 mg/kg | ED50 ([27]; oral administration): 66 mg/kg | ED50 [28]: 0.08 mg/kg | MIC [29]: 1.0 µg/mL (≈ 0.601 µM) | MIC [30]: > 128 µg/mL | MIC [31]: 4.0 µg/mL | MIC [32]: < 0.5 µg/mL | MIC [33]: 0.13 µg/mL | MIC [34]: 0.5 µg/mL | MIC [35]: 1.0 µg/mL (≈ 0.601 µM) | MIC [36]: 0.25 µg/mL

CCC(C)CCCCCCC(=O)N[C@@H](Cc1c[nH]c2ccccc12)C(=O)NC(CC(N)=O)C(=O)N[C@@H](CC(=O)O)C(=O)N[C@@H]1C(=O)NCC(=O)N[C@@H](CCCN)C(=O)N[C@@H](CC(=O)O)C(=O)N[C@H](C)C(=O)N[C@@H](CC(=O)O)C(=O)NCC(=O)N[C@H](CO)C(=O)N[C@@H]([C@H](C)CC(=O)O)C(=O)N[C@@H](CC(=O)c2ccccc2N)C(=O)O[C@@H]1C (stereo in doubt) [Factor C1]
MIC [1]: 64 µg/mL (≈ 39.2 µM) | MIC [2]: 0.13 µg/mL | LD50 ([3]; IV): > 250 mg/kg | LD50 ([3]; SC): > 365 mg/kg | MIC [4]: 16 µg/mL (≈ 9.79 µM) | MIC [5]: 1.0 µg/mL | Percent of Rats Cured [6]: 50% | Percent of Rats with a 4-Log Titer Decrease [6]: 50% | MIC [7]: 2 µg/mL (≈ 1.22 µM) | MIC [8]: 0.13 µg/mL (≈ 0.0795 µM) | MIC [9]: > 128 µg/mL | MIC [10]: 16 µg/mL (≈ 9.79 µM) | MIC [11]: 4 µg/mL (≈ 2.45 µM) | MIC [12]: 1.0 µg/mL (≈ 0.612 µM) | MIC [13]: 2.0 µg/mL | MIC [14]: 1.0 µg/mL | MIC [15]: 0.5 µg/mL | growth inhibition [16]: inhibit the growth of certain pathogenic organisms, particularly gram-positive bacteria | MIC [17]: 0.5 µg/mL | MIC [18]: 2 µg/mL (≈ 1.22 µM) | LD50 [19]: 479 ± 32 mg/kg | MIC [20]: 0.13 µg/mL (≈ 0.0795 µM) | MIC [21]: 32.0 µg/mL | MIC [22]: 0.5 µg/mL (≈ 0.306 µM) | Bioassay (Micrococcus luteus) [23]: 1663 units/mg | pKa (first group) [24]: 5.7 and 5.9 | MIC [25]: 4 µg/mL (≈ 2.45 µM) | ED50 [26]: 0.3 mg/kg | ED50 [27]: 0.064 mg/kg | ED50 ([27]; oral administration): 93 mg/kg | ED50 [28]: 0.22 mg/kg | MIC [29]: 8 µg/mL (≈ 4.89 µM) | MIC [30]: > 128 µg/mL | MIC [31]: 16.0 µg/mL | MIC [32]: 4 µg/mL (≈ 2.45 µM) | MIC [33]: 0.5 µg/mL | MIC [34]: 2.0 µg/mL | MIC [35]: 4 µg/mL (≈ 2.45 µM) | MIC [36]: 0.13 µg/mL
